Experimental data reported in doi:10.1101/2025.10.22.684062 (bioRxiv, 2025).
Peptide text beside a SMILES is read from it.

Experiments:
[1] = In vivo plasma pharmacokinetics; conditions: ip, male C57BL/6 mouse, 5mg/kg intraperitoneal, LC-MS/MS
Procedure: Blood samples (100 μl) were obtained at 0, 0.25, 0.5, 1, 2, 4, 8, and 24 hours via tail vein bleeds.

B16-F10 melanoma tumors = assay: B16-F10 syngeneic mouse tumor model; format: in vivo, C57BL/6 mice; conditions: CST 10 mg/kg i.p. three times per week, tumor-bearing mice, n=9
Procedure: Age-matched male and female C57BL/6 mice (7–9 weeks, n = 9) were subcutaneously injected with 5 × 10^4 B16-F10 cells in 100 μL PBS. […] Tumor dimensions were measured with calipers, and volume was calculated using the formula V = (length × width^2)/2. Mice were euthanized 22 days post-inoculation. All procedures were approved by the IACUC of UCSD and the VA San Diego Healthcare System and conformed to NIH guidelines.
Tumors were fixed, paraffin-embedded, and sectioned (5 μm). Hematoxylin and eosin staining was performed at the La Jolla Institute for Immunology. Immunohistochemistry was carried out using the Super Sensitive™ M Polymer-HRP Kit (Biogenex). After deparaffinization, antigen retrieval was performed using Histo VT (Nacalai) at 90°C for 20 min. Sections were incubated overnight at 4°C with anti–Ki-67 (Abcam) or anti-CST (gift from Angelo Corti) at 1:100 dilution. Detection was performed with DAB and counterstained with hematoxylin. Slides were dehydrated and mounted in DPX. […]
Apoptotic nuclei were detected in tumor sections using the CF®594 TUNEL Assay Kit (Biotium). […] Fluorescence images were obtained using a Keyence microscope.
Tumor lysates were prepared in RIPA buffer containing protease inhibitors (Thermo Fisher). […] HRP-conjugated secondary antibodies (Cell Signaling Technology) were used, and signals were detected by chemiluminescence. […]

[2] = test system: Vemurafenib-sensitive A375 cell line; assay: Cell viability assay, Vemurafenib-sensitive (parental) A375 cells; format: cell-based; conditions: Homo sapiens, A-375
Procedure: (§1) Viability was determined using the CCK-8 reagent (APExBIO). Absorbance was measured at 450 nm using a Varioskan LUX reader.
(§2) Vemurafenib-resistant A375 cells were generated following established protocol. Parental cells were treated with 100 nM Vemurafenib for 2 weeks, followed by stepwise doubling of drug concentration every 2 weeks up to 3.2 μM. Surviving cells in maintenance culture containing 2 μM drug was used for downstream studies.

[3] = test system: Vemurafenib-resistant A375 cell line; assay: Cell viability assay, Vemurafenib-resistant A375 cells; format: cell-based, human
Procedure: as §1, §2

Row | IC50 ([3]; Homo sapiens, vemurafenib-resistant A-375, Vemurafenib-resistant A375 cells) | SMILES | half-life ([1]; read-out: t1/2 (half-life) (converted)) | Cmax ([1]; tail vein bleeds 0-24 hours, read-out: Cmax (maximum concentration)) | body weight and liver histology (B16-F10 melanoma tumors) | IC50 [2] | fold increase of IC50, resistant versus parental A375 cells ([3]; resistant vs parental A375)
1 |  | CSCC[C@H](NC(=O)[C@H](CO)NC(=O)[C@@H](N)CO)C(=O)N[C@@H](CCCCN)C(=O)N[C@@H](CC(C)C)C(=O)N[C@@H](CO)C(=O)N[C@@H](Cc1ccccc1)C(=O)N[C@@H](CCCNC(=N)N)C(=O)N[C@@H](C)C(=O)N[C@@H](CCCNC(=N)N)C(=O)N[C@@H](C)C(=O)N[C@@H](Cc1ccc(O)cc1)C(=O)NCC(=O)N[C@@H](Cc1ccccc1)C(=O)N[C@@H](CCCNC(=N)N)C(=O)NCC(=O)N1CCC[C@H]1C(=O)NCC(=O)N1CCC[C@H]1C(=O)N[C@@H](CCC(N)=O)C(=O)N[C@@H](CC(C)C)C(=O)O [CST, Catestatin] (H-SSMKLSFRARAYGFRGPGPQL-OH) | 1.38 h | 148 ng/mL | No major changes in body weight or liver histology |  | 
2 | 1430 nM | CCCS(=O)(=O)Nc1ccc(F)c(C(=O)c2c[nH]c3ncc(-c4ccc(Cl)cc4)cc23)c1F [Vemurafenib] |  |  |  | 229 nM | > 6 fold
